Assay results published in patent US9988400B2 (Genentech, Inc., priority 2013, dated 2018).

These molecules were tested against T1, HEK cells stably transfected with tetracycline inducible hNR1 and hNR2A (Homo sapiens, UniProt Q05586+Q12879) (assay: Assay 1: Cell-Based Assay, cytosolic calcium response to positive allosteric modulators (with 30 μM glycine and 300 nM L-glutamate, EC30)). Conditions: Table 3; cytosolic calcium response, with 30 μM glycine and 300 nM L-glutamate (EC30); — = no plateau was reached.
T1 construct: expressed in transfected cells; host or cells: HEK cells, stably transfected, tetracycline/doxycycline inducible
Procedure, shortened: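 Cells induced 24 h with 7.5 μg mL^−1 doxycycline plus 500 μM (+)-ketamine, loaded 60 min at 37 °C with calcium dye in Mg-free HBSS (1.8 mM Ca, probenecid, 10 μM (+)-ketamine, pH 7.15). Peak RFU over 5 min after compound addition, scaled to 100 μM L-glutamate (100%) and 0 μM (0%); four-parameter Hill fit for EC50, max % if no plateau.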

T1 sequence (Q12879 23-1464, other chains not shown): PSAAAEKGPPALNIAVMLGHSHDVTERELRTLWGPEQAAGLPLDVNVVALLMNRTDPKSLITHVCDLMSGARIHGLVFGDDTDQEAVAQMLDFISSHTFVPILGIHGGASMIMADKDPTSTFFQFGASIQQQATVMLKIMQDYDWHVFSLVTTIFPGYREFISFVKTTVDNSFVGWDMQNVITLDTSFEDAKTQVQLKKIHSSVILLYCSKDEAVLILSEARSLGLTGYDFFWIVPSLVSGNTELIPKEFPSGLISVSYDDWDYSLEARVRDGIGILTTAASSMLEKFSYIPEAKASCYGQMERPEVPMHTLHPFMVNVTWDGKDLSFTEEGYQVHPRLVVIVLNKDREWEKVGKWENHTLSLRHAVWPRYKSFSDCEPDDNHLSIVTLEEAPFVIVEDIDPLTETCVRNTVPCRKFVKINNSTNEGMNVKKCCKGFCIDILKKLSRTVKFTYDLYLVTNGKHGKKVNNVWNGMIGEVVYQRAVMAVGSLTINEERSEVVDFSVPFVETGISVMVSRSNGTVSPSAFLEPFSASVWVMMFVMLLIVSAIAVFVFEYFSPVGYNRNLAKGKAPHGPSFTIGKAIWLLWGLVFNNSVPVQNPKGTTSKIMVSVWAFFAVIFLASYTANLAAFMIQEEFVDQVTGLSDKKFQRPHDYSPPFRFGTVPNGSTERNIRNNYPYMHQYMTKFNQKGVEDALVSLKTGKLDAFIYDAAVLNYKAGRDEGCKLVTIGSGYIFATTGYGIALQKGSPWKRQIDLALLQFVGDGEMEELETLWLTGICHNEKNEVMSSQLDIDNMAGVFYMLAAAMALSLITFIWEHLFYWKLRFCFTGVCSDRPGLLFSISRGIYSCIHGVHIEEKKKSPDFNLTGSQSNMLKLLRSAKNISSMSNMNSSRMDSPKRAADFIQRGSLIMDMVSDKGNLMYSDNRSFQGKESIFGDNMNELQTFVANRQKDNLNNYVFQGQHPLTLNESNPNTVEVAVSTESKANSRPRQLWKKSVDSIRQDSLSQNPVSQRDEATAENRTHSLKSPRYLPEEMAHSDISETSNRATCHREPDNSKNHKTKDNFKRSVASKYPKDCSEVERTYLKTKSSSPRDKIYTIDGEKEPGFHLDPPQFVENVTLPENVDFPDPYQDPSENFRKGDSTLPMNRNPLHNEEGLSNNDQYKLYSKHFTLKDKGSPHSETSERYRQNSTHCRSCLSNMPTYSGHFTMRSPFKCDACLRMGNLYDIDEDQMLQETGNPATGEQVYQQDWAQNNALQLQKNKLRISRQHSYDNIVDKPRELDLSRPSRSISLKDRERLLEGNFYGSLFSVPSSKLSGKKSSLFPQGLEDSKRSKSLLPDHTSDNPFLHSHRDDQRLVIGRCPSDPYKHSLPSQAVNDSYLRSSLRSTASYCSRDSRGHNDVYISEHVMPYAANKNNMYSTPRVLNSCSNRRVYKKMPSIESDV

| SMILES | EC50 |
| --- | --- |
| O=c1cc(Cn2nc(C(F)(F)F)cc2Cl)nc2scc(Br)n12 [compound 225, 3-bromo-7-[[5-chloro-3-(trifluoromethyl)pyrazol-1-yl]methyl]thiazolo[3,2-a]pyrimidin-5-one] | 8.69 µM |
| Cc1sc2nc(Cn3nc(C(F)(F)F)cc3Cl)cc(=O)n2c1CC#N [compound 229, 2-[7-[[5-chloro-3-(trifluoromethyl)pyrazol-1-yl]methyl]-2-methyl-5-oxo-thiazolo[3,2-a]pyrimidin-3-yl]acetonitrile] | 6.46 µM |
| CCNC(=O)c1c(C(F)(F)F)sc2nc(CN(C)c3ccc(F)cn3)cc(=O)n12 [compound 230, N-ethyl-7-[[(5-fluoro-2-pyridyl)-methyl-amino]methyl]-5-oxo-2-(trifluoromethyl)thiazolo[3,2-a]pyrimidine-3-carboxamide] | 6.86 µM |
| Cc1sc2nc(Cn3nc(C(F)(F)F)cc3Br)cc(=O)n2c1C1CC1C#N (stereo not shown) [compound 234, 2-[7-[[5-bromo-3-(trifluoromethyl)pyrazol-1-yl]methyl]-2-methyl-5-oxo-thiazolo[3,2-a]pyrimidin-3-yl]cyclopropanecarbonitrile] | 0.0342 µM |
| CCNC(=O)c1c(C(C)=O)sc2nc(Cn3nc(C(F)(F)F)cc3Cl)cc(=O)n12 [compound 237, 2-acetyl-7-[[5-chloro-3-(trifluoromethyl)pyrazol-1-yl]methyl]-N-ethyl-5-oxo-thiazolo[3,2-a]pyrimidine-3-carboxamide] | 0.889 µM |
| CCNC(=O)c1c(C(C)=O)sc2nc(Cn3nc(Cl)cc3C(F)(F)F)cc(=O)n12 [compound 238, 2-acetyl-7-[[3-chloro-5-(trifluoromethyl)pyrazol-1-yl]methyl]-N-ethyl-5-oxo-thiazolo[3,2-a]pyrimidine-3-carboxamide] | 2.32 µM |
| CC(=O)c1csc2nc(Cn3nc(C(F)(F)F)cc3Cl)cc(=O)n12 [compound 242, 3-acetyl-7-[[5-chloro-3-(trifluoromethyl)pyrazol-1-yl]methyl]thiazolo[3,2-a]pyrimidin-5-one] | 11.4 µM |
| COc1sc2nc(Cn3nc(C(F)(F)F)cc3Cl)cc(=O)n2c1C(C)=O [compound 244, 3-Acetyl-7-[[5-chloro-3-(trifluoromethyl)pyrazol-1-yl]methyl]-2-methoxy-thiazolo[3,2-a]pyrimidin-5-one] | 0.392 µM |
| O=c1cc(Cn2nc(C(F)(F)F)cc2Cl)nc2sc(C(F)(F)F)c(-c3cscn3)n12 [compound 248, 7-[[5-chloro-3-(trifluoromethyl)pyrazol-1-yl]methyl]-3-thiazol-4-yl-2-(trifluoromethyl)thiazolo[3,2-a]pyrimidin-5-one] | 1.45 µM |
| O=c1cc(Cn2nc(C(F)(F)F)cc2Cl)nc2sc(C(F)(F)F)c(-c3cncc(F)c3)n12 [compound 249, 7-[[5-chloro-3-(trifluoromethyl)pyrazol-1-yl]methyl]-3-(5-fluoro-3-pyridyl)-2-(trifluoromethyl)thiazolo[3,2-a]pyrimidin-5-one] | 6.33 µM |
| Cc1sc2nc(Cn3nc(Cl)cc3Cl)cc(=O)n2c1C1CC1C#N (stereo not shown) [compound 251] | 0.42 µM |
| O=c1cc(Cn2nc(C(F)(F)F)cc2Cl)nc2sc(C(F)(F)F)c(N3CC(F)C3)n12 [compound 254, 7-[[5-chloro-3-(trifluoromethyl)pyrazol-1-yl]methyl]-3-(3-fluoroazetidin-1-yl)-2-(trifluoromethyl)thiazolo[3,2-a]pyrimidin-5-one] | 1.37 µM |
| O=c1cc(Cn2nc(C(F)(F)F)cc2Cl)nc2sc(C(F)(F)F)c(-c3cncc(Cl)c3)n12 [compound 255, 3-(5-chloro-3-pyridyl)-7-[[5-chloro-3-(trifluoromethyl)pyrazol-1-yl]methyl]-2-(trifluoromethyl)thiazolo[3,2-a]pyrimidin-5-one] | 7.86 µM |
| CC(=O)c1c(C(F)(F)F)sc2nc(Cc3cccc(C#N)c3F)cc(=O)n12 [compound 257, 3-[[3-acetyl-5-oxo-2-(trifluoromethyl)thiazolo[3,2-a]pyrimidin-7-yl]methyl]-2-fluoro-benzonitrile] | 20.5 µM |

Second part, the molecule after the results:

| EC50 | SMILES |
| --- | --- |
| 0.366 µM | Cc1sc2nc(Cn3nc(C(F)(F)F)cc3Cl)cc(=O)n2c1C(=O)C1CC1 [compound 224, 7-[[5-chloro-3-(trifluoromethyl)pyrazol-1-yl]methyl]-3-(cyclopropanecarbonyl)-2-methyl-thiazolo[3,2-a]pyrimidin-5-one] |
| 1.42 µM | O=c1cc(Cn2nc(Cl)cc2C(F)(F)F)nc2scc(Br)n12 [compound 226, 3-bromo-7-[[3-chloro-5-(trifluoromethyl)pyrazol-1-yl]methyl]thiazolo[3,2-a]pyrimidin-5-one] |
| 13 µM | Cc1sc2nc(Cn3nc(N)cc3Cl)cc(=O)n2c1Br [compound 227, 7-[(3-amino-5-chloro-pyrazol-1-yl)methyl]-3-bromo-2-methyl-thiazolo[3,2-a]pyrimidin-5-one] |
| 32.2 µM | Cc1sc2nc(Cn3nc(Cl)cc3N)cc(=O)n2c1Br [compound 228, 7-[(5-amino-3-chloro-pyrazol-1-yl)methyl]-3-bromo-2-methyl-thiazolo[3,2-a]pyrimidin-5-one] |
| 61.3 µM | O=c1cc(Cn2nc(C(F)(F)F)cc2Cl)nc2sc(C(F)(F)F)c(N3CC(F)(F)C3)n12 [compound 231, 7-[[5-chloro-3-(trifluoromethyl)pyrazol-1-yl]methyl]-3-(3,3-difluoroazetidin-1-yl)-2-(trifluoromethyl)thiazolo[3,2-a]pyrimidin-5-one] |
| 6.14 µM | COc1sc2nc(Cn3nc(C(F)(F)F)cc3Cl)cc(=O)n2c1-c1cccnc1 [compound 233, 7-[[5-chloro-3-(trifluoromethyl)pyrazol-1-yl]methyl]-2-methoxy-3-(3-pyridyl)thiazolo[3,2-a]pyrimidin-5-one] |
| 21.2 µM | O=c1cc(Cn2nc(C(F)(F)F)cc2Cl)nc2scc(Cl)n12 [compound 235, 3-chloro-7-[[5-chloro-3-(trifluoromethyl)pyrazol-1-yl]methyl]thiazolo[3,2-a]pyrimidin-5-one] |
| 44.5 µM | O=c1cc(Cn2nc(Cl)cc2C(F)(F)F)nc2scc(Cl)n12 [compound 236, 3-chloro-7-[[3-chloro-5-(trifluoromethyl)pyrazol-1-yl]methyl]thiazolo[3,2-a]pyrimidin-5-one] |
| 14.2 µM | O=c1cc(Cn2nc(C(F)(F)F)cc2Cl)nc2scc(C(F)(F)F)n12 [compound 239, 7-[[5-chloro-3-(trifluoromethyl)pyrazol-1-yl]methyl]-3-(trifluoromethyl)thiazolo[3,2-a]pyrimidin-5-one] |
| 37.1 µM | Cc1sc2nc(Cc3cccc(C(F)(F)F)c3F)cc(=O)n2c1-c1ncn[nH]1 [compound 240, 7-[[2-Fluoro-3-(trifluoromethyl)phenyl]methyl]-2-methyl-3-(1H-1,2,4-triazol-5-yl)thiazolo[3,2-a]pyrimidin-5-one] |
| 0.313 µM | N#CC1CC1c1csc2nc(Cn3nc(C(F)(F)F)cc3Cl)cc(=O)n12 (stereo not shown) [compound 241, 2-[7-[[5-chloro-3-(trifluoromethyl)pyrazol-1-yl]methyl]-5-oxo-thiazolo[3,2-a]pyrimidin-3-yl]cyclopropanecarbonitrile] |
| 0.864 µM | O=c1cc(Cn2nc(C(F)(F)F)cc2Cl)nc2sc(C(F)(F)F)c(OCC(F)(F)F)n12 [compound 243, 7-[[5-chloro-3-(trifluoromethyl)pyrazol-1-yl]methyl]-3-(2,2,2-trifluoroethoxy)-2-(trifluoromethyl)thiazolo[3,2-a]pyrimidin-5-one] |
| 0.409 µM | COc1sc2nc(Cn3nc(Cl)cc3C(F)(F)F)cc(=O)n2c1C(C)=O [compound 245, 3-acetyl-7-[[3-chloro-5-(trifluoromethyl)pyrazol-1-yl]methyl]-2-methoxy-thiazolo[3,2-a]pyrimidin-5-one] |
| 0.0999 µM | Cc1sc2nc(Cn3nc([N+](=O)[O-])cc3Cl)cc(=O)n2c1Br [compound 246, 3-bromo-7-[(5-chloro-3-nitro-pyrazol-1-yl)methyl]-2-methyl-thiazolo[3,2-a]pyrimidin-5-one] |
| 7.7 µM | O=c1cc(Cn2nc(C(F)(F)F)cc2Cl)nc2sc(C(F)(F)F)c(-c3ccn[nH]3)n12 [compound 247, 7-[[5-chloro-3-(trifluoromethyl)pyrazol-1-yl]methyl]-3-(1H-pyrazol-5-yl)-2-(trifluoromethyl)thiazolo[3,2-a]pyrimidin-5-one] |
| 13.8 µM | CCC(=O)c1c(C(F)(F)F)sc2nc(Cn3nc(C(F)(F)F)cc3Cl)cc(=O)n12 [compound 250, 7-[[5-Chloro-3-(trifluoromethyl)pyrazol-1-yl]methyl]-3-propanoyl-2-(trifluoromethyl)thiazolo[3,2-a]pyrimidin-5-one] |
| 5.76 µM | Cc1sc2nc(Cn3nc(Cl)cc3C(F)(F)F)cc(=O)n2c1C(C)C#N (stereo not shown) [compound 252, 2-[7-[[3-chloro-5-(trifluoromethyl)pyrazol-1-yl]methyl]-2-methyl-5-oxo-thiazolo[3,2-a]pyrimidin-3-yl]propanenitrile] |
| 9.95 µM | CC1CC1c1c(C(F)(F)F)sc2nc(Cc3cccc(C#N)c3F)cc(=O)n12 (stereo not shown) [compound 253, 2-fluoro-3-[[3-[2-methylcyclopropyl]-5-oxo-2-(trifluoromethyl)thiazolo[3,2-a]pyrimidin-7-yl]methyl]benzonitrile] |
| 0.611 µM | CCNC(=O)c1c(C(F)(F)F)sc2nc(Cn3nc(Cl)cc3Cl)cc(=O)n12 [compound 256, 7-[(3,5-dichloropyrazol-1-yl)methyl]-N-ethyl-5-oxo-2-(trifluoromethyl)thiazolo[3,2-a]pyrimidine-3-carboxamide] |
| 0.227 µM | CCNC(=O)c1c(C(F)F)sc2nc(Cn3nc(C(F)(F)F)cc3Cl)cc(=O)n12 [compound 258, 7-[[5-Chloro-3-(trifluoromethyl)pyrazol-1-yl]methyl]-2-(difluoromethyl)-N-ethyl-5-oxo-thiazolo[3,2-a]pyrimidine-3-carboxamide] |
